pIC50: −log10 of the molar value.
Tests used:
Assay type in all cases: cell-based
[1] = tested on: SPI1 type III protein secretion system (SopE-Bla secretion); experiment: Primary assay: Type III protein secretion of the chimeric SopE-Bla polypeptide by Salmonella enterica (nitrocefin hydrolysis); settings: read-out: SopE IC50(uM)
Excerpt: Primary assay: Type III protein secretion of the chimeric SopÉ-Bla polypeptide by Salmonella enterica. This procedure is a cell-based assay that measures the type III-dependent secretion by Salmonella enterica of a plasmid-encoded chimeric polypeptide whose synthesis can be regulated, and which is endowed with an enzymatic activity that can be monitored calorimetrically by hydrolysis of a substrate that is unable to penetrate into the bacterial cytoplasm within the time constraints of the reaction. Thus, the colorimetric reaction is not influenced by SopÉ-Bla polypeptide in the bacterial cytoplasm. Instead, it effectively measures the amount of polypeptide that has been secreted from the S. enterica cytoplasm to the extracellular medium via type III system protein secretion.
The SopÉ-Bla recombinant polypeptide consists of two functionally distinct domains spliced together. The N-terminus domain is encoded by a polynucleotide region specifying the signal for type III secretion of the SopE polypeptide of S. enterica, an effector of the SPI1 type III protein secretion system. The C-terminus domain of SopÉ-Bla consists of a 263 amino acid peptide sequence that corresponds to the TEM-1 β-lactamase expressed by plasmid pBR322 but without its N-terminal signal sequence. The TEM-1 β-lactamase part of the SopÉ-Bla chimeric polypeptide is used as a reporter enzyme. It is capable of hydrolyzing nitrocefin resulting in a product whose accumulation can be monitored by colorimetric detection. The secretion of the SopÉ-Bla chimeric polypeptide from the cytoplasm to the extracellular medium is dependent on type III protein secretion.
For this procedure, cells grown under conditions known to favor a functional SPI1 secretion system are induced for expression of the SopÉ-Bla protein and grown either in the presence or in the absence of putative inhibitors for determined time. Nitrocefin is then added to the various cultures and its hydrolysis are used for quantitation. An inhibitor of Type III protein secretion is generally a compound that reduces the signal of the enzymatic reaction by decreasing the amount of SopÉ-Bla secreted into the extracellular medium.

[2] = tested on: SPI1 type III protein secretion system (SipB secretion); experiment: Secondary assay: Type III-dependent protein secretion of the SipB polypeptide by S. enterica (immunoblot); settings: Salmonella enterica, read-out: SipB IC50(uM)
Protocol: Secondary assay: Type III-dependent protein secretion of the SipB polypeptide by S. enterica. The SipB protein of S. enterica is another effector of the SPI1 type III protein secretion system from S. enterica. In this cell-based procedure, the Type III-dependent secretion of SipB from the bacterial cytoplasm to the extracellular medium was measured through its reactivity with a cognate mouse monoclonal.
Salmonella enterica cells growing either in the presence or in the absence of inhibitors are induced for the production of SipB. Following an established period of growth the cells are sedimented and the amount of SipB present in the supernatant is quantified with a scanning imager following application of immunoblot techniques. Detection may employ an anti-SipB mouse monoclonal antibody (e.g., obtained from Jorge Galan, SUNY at Stony Brook, N.Y.) followed by treatment with commercially available sheep anti-mouse polyclonal antibody conjugated with horseradish peroxidase. Thereafter the membrane is treated with a peroxidase chemiluminescent substrate and exposed to film for an appropriate exposure time. Inhibition may be measured relative to untreated controls.

[3] = tested on: type III protein secretion system of P. aeruginosa PA103 (ExoU secretion); experiment: Tertiary assay: Type III-dependent secretion of ExoU by P. aeruginosa PA103 (SDS-PAGE band quantitation); settings: Pseudomonas aeruginosa, ExoU secreted into extracellular medium
Excerpt: Tertiary assay: inhibition of Type III protein secretion of effectors from a Pseudomonas aeruginosa system. Type III protein secretion is used by P. aeruginosa to secrete several essential virulence determinants. One effector of the type III protein secretion system of P. aeruginosa PA103 is the virulence determinants ExoU.
The amount of Type III-dependent secretion of ExoU by P. aeruginosa PA103 can be determined in a cell-based assay by quantification of the 73.9 kDa ExoU protein secreted into the extracellular medium. Such quantitation can be achieved by growing strain PA103 in a deferrated medium in the presence of nitrilotriacetic acid (an inducer of Type III protein secretion in P. aeruginosa) and either in the presence or absence of putative inhibitors. After a prolonged growth period, the cells are sedimented and the supernatants concentrated by ammonium sulfate precipitation. The proteins in the resuspended pellets are separated by electrophoresis on SDS-polyacrylamide gels. After staining gels with Colloidal Blue™, the 73.9 kDa ExoU band is quantitated by scanning through an imager. The effects of inhibitors on the intensity of the ExoU band may be measured relative to that of untreated controls.

Row | Compound | IC50 [1] | IC50 [2] | pIC50 [3]
1 | O=C(Nc1cc(-c2cccc(C(F)(F)F)c2)cn(C(Cc2ccc(Cl)cc2)C(=O)O)c1=O)c1ccc(-c2ccccc2)cc1 (stereo not drawn) [Compound 22, 2-[3-[(Biphenyl-4-carbonyl)amino]-2-oxo-5-(3-trifluoromethylphenyl)-2H-pyridin-1-yl]-3-(4-chlorophenyl)propionic acid] | 3.4 µM | 38.3 µM | < 4.00
2 | O=C(Nc1cc(-c2cccs2)cn(C(Cc2ccc(Cl)cc2)C(=O)O)c1=O)c1ccc(-c2ccccc2)cc1 (stereo not drawn) [Compound 50, 2-{3-[(Biphenyl-4-carbonyl)amino]-2-oxo-5-thiophen-2-yl-2H-pyridin-1-yl}-3-(4-chlorophenyl)propionic acid] | 6.4 µM | 27 µM | 4.29
3 | O=C(Nc1cc(-c2ccsc2)cn(C(Cc2ccc(Cl)cc2)C(=O)O)c1=O)c1ccc(-c2ccccc2)cc1 (stereo not drawn) [Compound 44, 2-{3-[(Biphenyl-4-carbonyl)amino]-2-oxo-5-thiophen-3-yl-2H-pyridin-1-yl}-3-(4-chlorophenyl)propionic acid] | 2.8 µM | > 100 µM | < 4.00
4 | O=C(Nc1cc(-c2ccc(F)cc2)cn(C(Cc2ccc(Cl)cc2)C(=O)O)c1=O)c1ccc(-c2ccccc2)cc1 (stereo not drawn) [Compound 35, 2-[3-[(Biphenyl-4-carbonyl)amino]-5-(4-fluorophenyl)-2-oxo-2H-pyridin-1-yl]-3-(4-chlorophenyl)propionic acid] | 2.3 µM | 58.4 µM | 5.12
5 | COC(=O)c1ccc(-c2cc(NC(=O)c3ccc(C(F)(F)F)cc3)c(=O)n([C@@H](Cc3ccccc3)C(=O)O)c2)cc1 [Compound 6, (S)-4-[1-(1-Carboxy-2-phenethyl)-6-oxo-5-(4-trifluoromethylbenzoylamino)-1,6-dihydro-pyridin-3-yl]benzoic acid methyl ester] | 53.6 µM | > 100 µM | < 4.00
6 | O=C(Nc1cc(-c2ccc(Cl)c(Cl)c2)cn(C(Cc2ccc(Cl)cc2)C(=O)O)c1=O)c1ccc(C(F)(F)F)cc1 (stereo not drawn) [Compound 20, 3-(4-Chlorophenyl)-2-[5-(3,4-dichloro-phenyl)-2-oxo-3-(4-trifluoromethyl-benzoylamino)-2H-pyridin-1-yl]propionic acid] | 2.7 µM | > 100 µM | < 4.00
7 | O=C(Nc1cc(-c2ccc(-c3ccccc3)cc2)cn(C(Cc2ccc(Cl)cc2)C(=O)O)c1=O)c1ccc(-c2ccccc2)cc1 (stereo not drawn) [Compound 47, 2-{3-[(Biphenyl-4-carbonyl)amino]-5-biphenyl-4-yl-2-oxo-2H-pyridin-1-yl}-3-(4-chlorophenyl)propionic acid] | 1.4 µM | 55 µM | 4.40
8 | CN(C)c1ccc(-c2cc(NC(=O)c3ccc(Oc4ccccc4)cc3)c(=O)n(C(Cc3ccc(Cl)cc3)C(=O)O)c2)cc1 (stereo not drawn) [Compound 53, 3-(4-Chlorophenyl)-2-[5-(4-dimethylaminophenyl)-2-oxo-3-(4-phenoxy-benzoylamino)-2H-pyridin-1-yl]propionic acid] | 3.6 µM | > 100 µM | 4.31
9 | O=C(Nc1cc(-c2ccc3ccccc3c2)cn(C(Cc2ccc(Cl)cc2)C(=O)O)c1=O)c1ccc(-c2ccccc2)cc1 (stereo not drawn) [Compound 42, 2-{3-[(Biphenyl-4-carbonyl)amino]-5-naphthalen-2-yl-2-oxo-2H-pyridin-1-yl}-3-(4-chlorophenyl)propionic acid] | 1.1 µM | 76.2 µM | 4.38
10 | O=C(Nc1cc(-c2ccc(Oc3ccccc3)cc2)cn([C@@H](Cc2ccccc2)C(=O)O)c1=O)c1ccc(C(F)(F)F)cc1 [Compound 4, (S)-2-[2-Oxo-5-(4-phenoxyphenyl)-3-(4-trifluoromethylbenzoylamino)-2H-pyridin-1-yl]-3-phenylpropionic acid] | 6.3 µM | 84.7 µM | 4.07
